# Test results from ChEMBL document CHEMBL5233251, “Epoxide containing molecules: A good or a bad drug design approach” (Eur J Med Chem, 2020).
# Experiments:
# K562 = assay: Antiproliferative activity against human K562 cells assessed as reduction in cell viability incubated for 48 hrs by CytoX cell viability assay; type: functional, cell-based; details: K562, 48 h
# DU-145 = assay: Antiproliferative activity against human DU-145 cells assessed as reduction in cell viability incubated for 48 hrs by CytoX cell viability assay; type: functional, cell-based; details: DU-145, 48 h
# HeLa = assay: Antiproliferative activity against human HeLa cells assessed as reduction in cell viability incubated for 48 hrs by CytoX cell viability assay; type: functional, cell-based
# HCT-15 = assay: Antiproliferative activity against human HCT-15 cells assessed as reduction in cell viability incubated for 48 hrs by CytoX cell viability assay; type: functional, cell-based; details: HCT-15, 48 h
# MCF7 [1] = assay: Antiproliferative activity against human MCF7 cells assessed as reduction in cell viability incubated for 48 hrs by CytoX cell viability assay; type: functional, cell-based; details: MCF7, 48 h
# MG-63 [2] = assay: Antiproliferative activity against human MG-63 cells assessed as inhibition of cell growth by MTT assay; type: functional, cell-based
# MG-63 [3] = assay: Antiproliferative activity against human MG-63 cells assessed as reduction in cell viability by SRB assay; type: functional, cell-based
# Hyalomma lusitanicum = assay: Anti-insecticidal activity against Hyalomma lusitanicum Koch larvae assessed as inhibition of larval growth; type: functional; details: for LC50: Hyalomma lusitanicum, read-out: LD50 (the source's name)
# [4] = Induction of apoptosis in human multiple myeloma cell; type: functional, cell-based
# HEp-2 = assay: Cytotoxicity against human HEp-2 cells assessed as inhibition of cell growth; type: functional; details: read-out: ED50 (the source's name)
# MDA-MB-231 = assay: Cytotoxicity against human MDA-MB-231 cells assessed as inhibition of cell growth incubated for 48 hrs by SRB assay; type: functional, cell-based; details: MDA-MB-231, 48 h
# A2780 = assay: Cytotoxicity against human A2780 cells assessed as inhibition of cell growth incubated for 96 hrs by SRB assay; type: toxicity, cell-based; details: A2780, 96 h
# Plasmodium falciparum [5] = assay: Antimalarial activity against […] incubated for 48 hrs; type: functional, organism-based; details: K1, 48 h
# Plasmodium falciparum [6] = assay: Antimalarial activity against Sulfadoxine-sensitive Plasmodium falciparum D6; type: functional, organism-based
# Plasmodium falciparum [7] = assay: Antimalarial activity against Sulfadoxine-resistant Plasmodium falciparum 3D7; type: functional, organism-based
# Plasmodium falciparum [8] = assay: Antimalarial activity against Sulfadoxine-sensitive Plasmodium falciparum FCR3; type: functional, organism-based
# Plasmodium falciparum [9] = assay: Antimalarial activity against chloroquine-sensitive Plasmodium falciparum D10 incubated for 48 hrs; type: functional, organism-based; details: D10, 48 h
# Plasmodium falciparum [10] = assay: Antimalarial activity against Sulfadoxine-resistant Plasmodium falciparum W2; type: functional, organism-based
# Plasmodium falciparum [11] = assay: Antimalarial activity against Sulfadoxine-sensitive Plasmodium falciparum HB3; type: functional, organism-based
# PC-3 = assay: Cytotoxicity against human PC-3 cells assessed as inhibition of cell growth incubated for 48 hrs by SRB assay; type: functional, cell-based; details: PC-3, 48 h
# MCF7 [12] = assay: Cytotoxicity against human MCF7 cells assessed as inhibition of cell growth incubated for 48 hrs by SRB assay; type: functional, cell-based; details: MCF7, 48 h
smiles,measurement,setting,value
Cc1cc(=O)c2c(O)cc(OC[C@H]3CO3)cc2o1,IC50,K562,9.74 µM
same,IC50,DU-145,15.2 µM
same,IC50,HeLa,16.7 µM
same,IC50,HCT-15,27.2 µM
same,IC50,MCF7 [1],22.9 µM
C[C@@H]1CC[C@@H]([C@]2(C)CO2)[C@H](OCc2ccccc2)C1,IC50,MG-63 [2],100 µM
same,IC50,MG-63 [3],100 µM
Cc1cc(=O)c2c(OCC3CO3)cc(OCC3CO3)cc2o1 (configuration not stated),IC50,K562,6.3 µM
same,IC50,DU-145,7.3 µM
same,IC50,HeLa,5.4 µM
same,IC50,HCT-15,12.1 µM
same,IC50,MCF7 [1],6.5 µM
CC(C)=C1C[C@H]2O[C@@]2(C)CC/C=C(\C)CC1=O,LD90,Hyalomma lusitanicum,3.45 mg/mL
same,LC50,Hyalomma lusitanicum,1470 µg/mL
COc1ccc2c(c1)C(=O)C1OC1(C)C2=O (configuration not stated),EC50,[4],3.5 µM
C[C@@H]1C[C@H]2OC(=O)C(C3CO3)[C@H]2[C@H](O)[C@]2(C)C(=O)C3OC3[C@@H]12 (some centres not stated),EC50,HEp-2,0.11 µg/mL
C[C@]12CC[C@H]3[C@@H](C[C@@H]4O[C@@]45C[C@@H](O)CC[C@]35C)[C@@H]1CC(=O)OC2,IC50,MDA-MB-231,39.8 µM
CC(C)=C1C/C=C(\C)CC[C@H]2O[C@@]2(C)CC1=O,LD90,Hyalomma lusitanicum,4.1 mg/mL
same,LC50,Hyalomma lusitanicum,2700 µg/mL
C=C1C(=O)O[C@@H]2[C@H]3C(C)=CC[C@@]34O[C@@]4(C)CC[C@@H]12 [ARGLABIN],IC50,A2780,12.6 µM
Fc1ccc([C@]23CC[C@](c4ccc(F)cc4)(OO2)[C@H]2O[C@H]23)cc1,IC50,Plasmodium falciparum [5],0.08 µM
same,IC50,Plasmodium falciparum [6],0.01 µM
same,IC50,Plasmodium falciparum [7],> 10 µM
same,IC50,Plasmodium falciparum [8],0.01 µM
same,IC50,Plasmodium falciparum [9],0.08 µM
same,IC50,Plasmodium falciparum [10],> 10 µM
same,IC50,Plasmodium falciparum [11],0.01 µM
Cc1cc(=O)c2c(O)cc(OCC3CO3)cc2o1 (configuration not stated),IC50,K562,143 µM
same,IC50,DU-145,20.9 µM
same,IC50,HeLa,17.7 µM
same,IC50,HCT-15,18.3 µM
same,IC50,MCF7 [1],13.6 µM
C[C@@H]1OC(=O)C[C@H]2[C@@H]3CC[C@]45O[C@H]4C(=O)CC[C@]5(C)[C@H]3CC[C@]12C,IC50,MDA-MB-231,3.6 µM
C[C@]12CC[C@H]3[C@@H](C=CC4=CC(=O)[C@@H]5O[C@@H]5[C@@]43C)[C@@H]1CC(=O)OC2,IC50,MDA-MB-231,16.4 µM
same,IC50,PC-3,> 100 µM
same,IC50,MCF7 [12],> 100 µM
CC1C(=O)O[C@@H]2C[C@@H](C)[C@]34O[C@H]3CC(=O)[C@@]4(C)[C@@H](O)[C@H]12 (some centres not stated),EC50,HEp-2,0.11 µg/mL
C[C@@H]1C[C@H]2OC(=O)C(CN(C)C)[C@H]2[C@H](O)[C@]2(C)C(=O)C3OC3[C@@H]12 (some centres not stated),EC50,HEp-2,0.11 µg/mL
Cc1cc(=O)c2c(OC[C@H]3CO3)cc(OC[C@H]3CO3)cc2o1,IC50,K562,7.86 µM
same,IC50,DU-145,15.6 µM
same,IC50,HeLa,11.4 µM
same,IC50,HCT-15,229 µM
same,IC50,MCF7 [1],220 µM
Cc1cc(=O)c2c(OC[C@H]3CO3)cc(OC[C@@H]3CO3)cc2o1,IC50,K562,0.04 µM
same,IC50,DU-145,628 µM
same,IC50,HeLa,1.77 µM
same,IC50,HCT-15,9.59 µM
same,IC50,MCF7 [1],1.88 µM
CC1=CCC[C@]2(C)CC(=O)C3(C[C@@H]12)OC3(C)C (some centres not stated),LD90,Hyalomma lusitanicum,1.91 mg/mL
same,LC50,Hyalomma lusitanicum,230 µg/mL
CC(C)=C1C/C=C(\C)CC/C=C(\C)CC1=O,LD90,Hyalomma lusitanicum,3.13 mg/mL
same,LC50,Hyalomma lusitanicum,1080 µg/mL
